Data as given in ChEMBL document CHEMBL1909046, “DrugMatrix in vitro pharmacology data”.

Legend:
[1] = molecular target: Beta-3 adrenergic receptor (Homo sapiens, UniProt P13945); assay: DRUGMATRIX: Adrenergic beta3 radioligand binding (ligand: [125I] Cyanopindolol); assay type: cell membranes, HEK293, Membrane; conditions: Not Active = under 50% inhibition at 10 µM
[2] = DRUGMATRIX: ATPase, Na+/K+ enzyme inhibition (substrate: ATP); assay type: tissue-based, Sus scrofa, Heart; conditions: Not Active = under 50% inhibition at 10 µM
[3] = molecular target: T1, Cholecystokinin receptor type A (Homo sapiens, UniProt P32238); assay type: cell membranes, Membrane; conditions: 1321-n1; note: in other assays of this panel Not Active means under 50% inhibition at 10 µM
T1 sequence (P32238 whole entry): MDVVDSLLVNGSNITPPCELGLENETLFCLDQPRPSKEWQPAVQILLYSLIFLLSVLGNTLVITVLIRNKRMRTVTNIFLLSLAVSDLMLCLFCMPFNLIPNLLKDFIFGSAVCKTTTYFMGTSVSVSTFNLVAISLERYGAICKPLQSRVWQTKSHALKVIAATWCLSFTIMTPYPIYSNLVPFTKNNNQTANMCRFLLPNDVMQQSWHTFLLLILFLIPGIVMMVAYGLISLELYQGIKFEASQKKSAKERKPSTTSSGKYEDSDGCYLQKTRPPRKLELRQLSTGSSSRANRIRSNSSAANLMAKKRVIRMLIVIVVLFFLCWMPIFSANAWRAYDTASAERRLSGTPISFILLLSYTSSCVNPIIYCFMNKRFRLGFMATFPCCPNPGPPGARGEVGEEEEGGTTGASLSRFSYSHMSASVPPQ

[4] = molecular target: Sodium-dependent dopamine transporter (Homo sapiens, UniProt Q01959); assay: DRUGMATRIX: Dopamine Transporter radioligand binding (ligand: [125I] RTI-55); assay type: cell membranes, CHO-K1, Membrane; conditions: Not Active = under 50% inhibition at 10 µM
Sequence of Sodium-dependent dopamine transporter (Q01959 whole entry): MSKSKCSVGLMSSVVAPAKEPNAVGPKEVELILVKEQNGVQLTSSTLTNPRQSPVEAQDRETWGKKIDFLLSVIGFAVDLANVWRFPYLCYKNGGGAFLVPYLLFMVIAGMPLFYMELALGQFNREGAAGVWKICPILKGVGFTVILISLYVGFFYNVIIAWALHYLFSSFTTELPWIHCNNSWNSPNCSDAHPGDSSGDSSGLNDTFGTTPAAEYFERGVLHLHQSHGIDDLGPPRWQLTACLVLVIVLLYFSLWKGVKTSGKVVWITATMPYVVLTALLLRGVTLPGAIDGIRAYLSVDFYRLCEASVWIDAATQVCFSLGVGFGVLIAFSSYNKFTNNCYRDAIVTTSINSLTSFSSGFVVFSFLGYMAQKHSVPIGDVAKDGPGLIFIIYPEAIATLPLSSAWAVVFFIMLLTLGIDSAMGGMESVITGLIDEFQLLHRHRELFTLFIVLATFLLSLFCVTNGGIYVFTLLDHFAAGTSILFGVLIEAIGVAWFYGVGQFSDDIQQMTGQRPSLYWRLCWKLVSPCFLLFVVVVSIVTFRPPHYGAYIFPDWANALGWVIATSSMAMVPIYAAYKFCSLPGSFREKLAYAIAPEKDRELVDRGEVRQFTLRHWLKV

[5] = molecular target: T2, 3-hydroxy-3-methylglutaryl-coenzyme A reductase (Homo sapiens, UniProt P04035); parameters: species or system Escherichia coli;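 note: enzyme inhibition assay of HMG-CoA reductase using radiolabeled [14C]HMG-CoA as substrate; in other assays of this panel Not Active means under 50% inhibition at 10 µM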
T2 sequence (P04035 whole entry): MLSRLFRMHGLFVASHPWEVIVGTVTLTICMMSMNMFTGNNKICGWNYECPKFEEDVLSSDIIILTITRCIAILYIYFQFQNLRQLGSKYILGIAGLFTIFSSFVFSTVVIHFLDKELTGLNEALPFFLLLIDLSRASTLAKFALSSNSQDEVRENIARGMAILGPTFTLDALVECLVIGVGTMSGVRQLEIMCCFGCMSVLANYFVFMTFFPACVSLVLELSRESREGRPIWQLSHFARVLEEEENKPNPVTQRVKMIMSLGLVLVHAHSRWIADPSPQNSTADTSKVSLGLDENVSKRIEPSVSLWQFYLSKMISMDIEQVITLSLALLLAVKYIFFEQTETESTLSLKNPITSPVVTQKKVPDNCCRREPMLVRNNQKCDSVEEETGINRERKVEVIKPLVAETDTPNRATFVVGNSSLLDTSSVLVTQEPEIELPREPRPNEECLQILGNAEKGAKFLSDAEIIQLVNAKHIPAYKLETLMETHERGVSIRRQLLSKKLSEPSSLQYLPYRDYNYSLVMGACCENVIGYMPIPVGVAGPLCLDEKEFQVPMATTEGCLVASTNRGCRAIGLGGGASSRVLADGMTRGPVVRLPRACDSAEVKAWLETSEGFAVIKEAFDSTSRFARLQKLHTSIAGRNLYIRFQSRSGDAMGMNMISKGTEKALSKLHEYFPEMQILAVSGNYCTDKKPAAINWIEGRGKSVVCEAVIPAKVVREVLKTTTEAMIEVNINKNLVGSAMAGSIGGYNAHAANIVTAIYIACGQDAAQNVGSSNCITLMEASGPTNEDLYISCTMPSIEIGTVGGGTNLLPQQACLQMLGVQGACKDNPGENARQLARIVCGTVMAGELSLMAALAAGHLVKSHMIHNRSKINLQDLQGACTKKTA

[6] = molecular target: Kappa-type opioid receptor (Homo sapiens, UniProt P41145); assay: DRUGMATRIX: Opiate kappa (OP2, KOP) radioligand binding (ligand: [3H] Diprenorphine); assay type: cell membranes, HEK293, Membrane; conditions: Not Active = under 50% inhibition at 10 µM
Sequence of Kappa-type opioid receptor (P41145 whole entry): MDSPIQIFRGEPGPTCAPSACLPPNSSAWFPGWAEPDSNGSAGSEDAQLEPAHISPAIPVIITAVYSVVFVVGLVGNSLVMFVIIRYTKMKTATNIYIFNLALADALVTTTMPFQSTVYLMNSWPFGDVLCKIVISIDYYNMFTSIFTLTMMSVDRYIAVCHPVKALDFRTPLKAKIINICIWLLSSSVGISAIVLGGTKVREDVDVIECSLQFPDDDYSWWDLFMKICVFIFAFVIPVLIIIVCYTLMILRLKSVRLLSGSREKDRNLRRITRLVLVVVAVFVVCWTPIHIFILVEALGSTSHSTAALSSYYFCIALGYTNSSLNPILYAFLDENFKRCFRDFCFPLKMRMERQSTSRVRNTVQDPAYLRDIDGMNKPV

[7] = molecular target: T3, Caspase-1 (Homo sapiens, UniProt P29466); parameters: species or system Escherichia coli;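 note: Caspase-1 enzyme inhibition assay with a peptide substrate; in other assays of this panel Not Active means under 50% inhibition at 10 µM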
T3 sequence (P29466 whole entry): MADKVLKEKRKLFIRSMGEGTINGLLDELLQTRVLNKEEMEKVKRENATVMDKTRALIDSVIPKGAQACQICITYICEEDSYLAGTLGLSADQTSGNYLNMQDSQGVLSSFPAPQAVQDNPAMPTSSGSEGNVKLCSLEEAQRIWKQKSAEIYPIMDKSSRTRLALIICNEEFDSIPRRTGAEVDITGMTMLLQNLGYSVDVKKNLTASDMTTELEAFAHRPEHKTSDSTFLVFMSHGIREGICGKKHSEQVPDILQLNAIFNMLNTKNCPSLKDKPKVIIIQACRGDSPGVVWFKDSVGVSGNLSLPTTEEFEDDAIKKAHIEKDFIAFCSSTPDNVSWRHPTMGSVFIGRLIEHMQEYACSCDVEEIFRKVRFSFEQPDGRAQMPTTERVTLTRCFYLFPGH

Sequence of Beta-3 adrenergic receptor (P13945 whole entry): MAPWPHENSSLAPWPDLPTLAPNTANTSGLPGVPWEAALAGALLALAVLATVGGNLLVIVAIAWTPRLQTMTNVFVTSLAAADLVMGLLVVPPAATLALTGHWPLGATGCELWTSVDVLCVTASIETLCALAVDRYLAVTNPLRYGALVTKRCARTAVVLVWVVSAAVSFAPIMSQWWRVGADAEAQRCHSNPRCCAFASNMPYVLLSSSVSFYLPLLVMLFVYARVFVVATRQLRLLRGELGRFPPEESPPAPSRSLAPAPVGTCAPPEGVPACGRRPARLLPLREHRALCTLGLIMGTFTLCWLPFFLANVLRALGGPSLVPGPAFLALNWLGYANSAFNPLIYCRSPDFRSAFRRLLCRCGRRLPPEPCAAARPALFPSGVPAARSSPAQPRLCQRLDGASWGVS

Row | Molecule | IC50 ([1]; hek293) | IC50 [2] | Ki [2] | IC50 [3] | IC50 ([4]; cho-k1) | IC50 [5] | IC50 ([6]; hek293) | IC50 [7] | further results
1 | CN[C@@H]1[C@@H](O)[C@@H](O[C@@H]2[C@@H](O)[C@H](O[C@H]3OC(CN)=CC[C@H]3N)[C@@H](N)C[C@H]2N)OC[C@]1(C)O [SISOMICIN] | Not Active | Not Active | Not Active | Not Active | Not Active | Not Active | Not Active | Not Active | 
2 | NNc1ccccc1 [PHENYLHYDRAZINE] | Not Active | Not Active | Not Active | Not Active | Not Active | Not Active |  | Not Active | 
3 | C[C@](N)(Cc1ccc(O)cc1)C(=O)O [METYROSINE] | Not Active | Not Active | Not Active | Not Active | Not Active | Not Active | Not Active | Not Active | 
4 | CN1CCN2c3ccccc3Cc3ccccc3C2C1 (stereo unspecified) [MIANSERIN] | Not Active |  |  | Not Active | Not Active | Not Active | Not Active | Not Active | 
5 | CC(=O)[C@H]1CC[C@H]2[C@@H]3CCC4=CC(=O)CC[C@]4(C)[C@H]3CC[C@]12C [PROGESTERONE] | Not Active | Not Active | Not Active | Not Active | Not Active | Not Active | Not Active | Not Active | 
6 | Nc1ccc(S(=O)(=O)Nc2ccnn2-c2ccccc2)cc1 [SULFAPHENAZOLE] | Not Active | Not Active | Not Active | Not Active | Not Active | Not Active | Not Active | Not Active | 
7 | CC(CCc1ccccc1)NCC(O)c1ccc(O)c(C(N)=O)c1 (stereo unspecified) [LABETALOL] | Not Active | Not Active | Not Active | Not Active |  | Not Active | Not Active | Not Active | IC50 ([4]; read-out: IC50): 1.61 µM; Ki ([4]; read-out: Ki): 1.28 µM
8 | CC(C)(C)NC(=O)[C@@H]1CN(Cc2cccnc2)CCN1C[C@@H](O)C[C@@H](Cc1ccccc1)C(=O)N[C@H]1c2ccccc2C[C@H]1O.O | Not Active | Not Active | Not Active | Not Active | Not Active | Not Active | Not Active | Not Active | 
9 | CSc1ccc2c(c1)N(CCC1CCCCN1C)c1ccccc1S2 (stereo unspecified) [THIORIDAZINE] | Not Active |  |  | Not Active |  | Not Active |  | Not Active | 
10 | COc1c(C)c2c(c(O)c1C/C=C(\C)CCC(=O)OCCN1CCOCC1)C(=O)OC2 [MYCOPHENOLATE MOFETIL] | Not Active | Not Active | Not Active | Not Active | Not Active | Not Active | Not Active | Not Active | 
11 | CN[C@H](CC(C)C)C(=O)N[C@H]1C(=O)N[C@@H](CC(N)=O)C(=O)N[C@H]2C(=O)N[C@H]3C(=O)N[C@H](C(=O)N[C@H](C(=O)O)c4cc(O)cc(O)c4-c4cc3ccc4O)[C@H](O)c3ccc(c(Cl)c3)Oc3cc2cc(c3O[C@@H]2O[C@H](CO)[C@@H](O)[C@H](O)[C@H]2O[C@H]2C[C@](C)(N)[C@H](O)[C@H](C)O2)Oc2ccc(cc2Cl)[C@H]1O [VANCOMYCIN] | Not Active | Not Active | Not Active | Not Active | Not Active | Not Active | Not Active | Not Active | 
12 | CN(C)CCCN1c2ccccc2CCc2ccc(Cl)cc21 [CLOMIPRAMINE] | Not Active |  |  | Not Active |  | Not Active | Not Active | Not Active | 
13 | IVERMECTIN | Not Active | Not Active | Not Active | Not Active |  | Not Active |  | Not Active | Ki ([1]; hek293): Not Active; Ki [3]: Not Active; IC50 ([4]; cho-k1, read-out: IC50): 4.46 µM; Ki ([4]; cho-k1, read-out: Ki): 3.54 µM; Ki [5]: Not Active; Ki [7]: Not Active
14 | CC(C)(O)c1ccccc1CC[C@@H](SCC1(CC(=O)O)CC1)c1cccc(/C=C/c2ccc3ccc(Cl)cc3n2)c1 [MONTELUKAST] |  |  |  | Not Active |  | Not Active | Not Active | Not Active | IC50 ([1]; read-out: IC50): 4.3 µM; Ki ([1]; read-out: Ki): 3.2 µM
15 | O=[N+]([O-])c1cc([As](=O)(O)O)ccc1O [ROXARSONE] | Not Active | Not Active | Not Active | Not Active | Not Active | Not Active |  | Not Active | Ki ([1]; hek293): Not Active; Ki [3]: Not Active; Ki ([4]; cho-k1): Not Active; Ki [5]: Not Active; Ki [7]: Not Active
16 | Clc1ccccc1C(c1ccccc1)(c1ccccc1)n1ccnc1 [CLOTRIMAZOLE] |  |  |  | Not Active |  | Not Active |  | Not Active | IC50 ([1]; read-out: IC50): 7.21 µM; Ki ([1]; read-out: Ki): 5.41 µM; IC50 ([4]; read-out: IC50): 5.58 µM; Ki ([4]; read-out: Ki): 4.43 µM; Ki [6]: 2.52 µM; IC50 ([6]; read-out: IC50): 6.3 µM
17 | COc1cccc(C2(O)CCCCC2CN(C)C)c1 (stereo unspecified) [TRAMADOL] | Not Active |  |  | Not Active | Not Active | Not Active |  | Not Active | 
18 | COc1ccc(C(CN(C)C)C2(O)CCCCC2)cc1 (stereo unspecified) [VENLAFAXINE] | Not Active | Not Active | Not Active | Not Active | Not Active | Not Active |  | Not Active | 
19 | O=C(CCCN1CCC(O)(c2ccc(Cl)cc2)CC1)c1ccc(F)cc1 [HALOPERIDOL] | Not Active |  |  | Not Active |  | Not Active | Not Active | Not Active | 
20 | COc1ccc(CCN2CCC(Nc3nc4ccccc4n3Cc3ccc(F)cc3)CC2)cc1 [ASTEMIZOLE] |  |  |  | Not Active |  | Not Active |  | Not Active | 
